# Test results as given in ChEMBL document CHEMBL4602644, “Synthesis of PJOV56, a new quinoxalinyl-hydrazone derivative able to induce autophagy and apoptosis in colorectal cancer cells, and related compounds” (Bioorg Med Chem Lett, 2020).
# Activity calls are given as the source filed them. The rule behind the calls is not given here.
# Tests used:
# HCT-116 [1] = assay: Induction of autophagy in human HCT116 cells increase in Beclin 1 level at 3 uM measured after 48 hrs by Western blot analysis; assay type: functional, cell-based
# HCT-116 [2] = assay: Induction of apoptosis in human HCT116 cells assessed as late apoptotic cells at 3 uM measured after 48 hrs by annexinV-PE/7-AAD staining based flow cytometric analysis (reference value: 0.18 %); assay type: functional
# HCT-116 [3] = assay: Induction of morphological changes in human HCT116 cells assessed as increase in number of intracellular vesicles at 1.5 to 6 uM measured after 48 hrs by propidium iodide staining based flow cytometry; assay type: functional, cell-based
# HCT-116 [4] = assay: Induction of autophagy in human HCT116 cells assessed as formation of acidic vesicular organelles at 3 to 6 uM measured after 48 hrs by acridine orange staining based confocal microscopy; assay type: functional, cell-based
# HCT-116 [5] = assay: Induction of apoptosis in human HCT116 cells assessed as necrotic cells at 3 uM measured after 48 hrs by annexinV-PE/7-AAD staining based flow cytometric analysis (reference value: 0.16 %); assay type: functional
# HCT-116 [6] = assay: Induction of morphological changes in human HCT116 cells assessed as increase in size of intracellular vesicles at 1.5 to 6 uM measured after 48 hrs by propidium iodide staining based flow cytometry; assay type: functional, cell-based
# HCT-116 [7] = assay: Induction of apoptosis in human HCT116 cells assessed as early apoptotic cells at 3 uM measured after 48 hrs by annexinV-PE/7-AAD staining based flow cytometric analysis (reference value: 6.53 %); assay type: functional
# HCT-116 [8] = assay: Disruption of membrane integrity in human HCT116 cells assessed as decrease in viable cells at 3 uM measured after 48 hrs by propidium iodide staining based flow cytometry relative to control; assay type: functional
# SF-295 = assay: Cytotoxicity against human SF295 cells assessed as reduction in cell viability measured after 72 hrs by MTT assay; assay type: functional, cell-based; conditions: SF-295, 72 h
# HL-60 = assay: Cytotoxicity against human HL60 cells assessed as reduction in cell viability measured after 72 hrs by MTT assay; assay type: functional, cell-based; conditions: HL-60, 72 h
# HCT-116 [9] = assay: Cell cycle arrest in human HCT116 cells assessed as accumulation at S phase at 6 uM measured after 48 hrs by propidium iodide staining based flow cytometry (reference value: 33.29 %); assay type: functional
# HCT-116 [10] = assay: Induction of apoptosis in human HCT116 cells assessed as […] in cleaved caspase 7 expression at 3 to 6 uM measured after 48 hrs by Western blot analysis; assay type: functional, cell-based
# HCT-116 [11] = assay: Cell cycle arrest in human HCT116 cells assessed as accumulation at G0/G1 phase at 6 uM measured after 48 hrs by propidium iodide staining based flow cytometry (reference value: 41.67 %); assay type: functional
# HCT-116 [12] = assay: Cell cycle arrest in human HCT116 cells assessed as accumulation at G0/G1 phase at 1.5 uM measured after 48 hrs by propidium iodide staining based flow cytometry (reference value: 41.67 %); assay type: functional
# HCT-116 [13] = assay: Induction of apoptosis in human HCT116 cells assessed as increase in caspase 7 expression at 3 to 6 uM measured after 48 hrs by Western blot analysis; assay type: functional, cell-based
# HCT-116 [14] = assay: Induction of apoptosis in human HCT116 cells assessed as late apoptotic cells at 1.5 uM measured after 48 hrs by annexinV-PE/7-AAD staining based flow cytometric analysis (reference value: 0.18 %); assay type: functional
# HCT-116 [15] = assay: Cytotoxicity against human HCT116 cells assessed as reduction in cell viability measured after 48 hrs by MTT assay; assay type: functional, cell-based; conditions: HCT-116, 48 h
compound,measurement,setting,value
C(=N\Nc1cnc2ccccc2n1)/c1ccccn1,Activity,HCT-116 [1],Active
same,Activity,HCT-116 [2],2.55%
same,Activity,HCT-116 [3],Active
same,Activity,HCT-116 [4],Active
same,Activity,HCT-116 [5],0.87%
same,Activity,HCT-116 [6],Active
same,Activity,HCT-116 [7],5.18%
same,Activity,HCT-116 [8],90.45%
same,IC50,SF-295,3.88 µM
same,IC50,HL-60,0.82 µM
same,Activity,HCT-116 [9],29.41%
same,Activity,HCT-116 [10],Active
same,Activity,HCT-116 [11],64.85%
same,Activity,HCT-116 [12],35.69%
same,Activity,HCT-116 [13],Active
same,Activity,HCT-116 [14],1.14%
same,IC50,HCT-116 [15],3.04 µM
